Reference: ChEMBL document CHEMBL1201862, “PubChem BioAssay data set” (2004)
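Exposure lasted 48 hours, with cells grown in 96-well plates and compounds tested at five concentrations. Here, GI50 denotes the concentration required for 50% inhibition of growth.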 Activity calls are given as the source filed them. No stated cut-off is given here; in the data, active = GI50 up to about 1.1 µM and inactive = higher.

What was measured:
Assay in all cases: NCI anticancer screen, dose series, 48 h
NCI/ADR-RES = test system: NCI/ADR-RES
HCT-116 = test system: HCT-116
MCF7 = test system: MCF7
SK-MEL-28 = test system: SK-MEL-28
PC-3 = test system: PC-3
A498 = test system: A498
786-0 = test system: 786-0
HT-29 = test system: HT-29
M14 = test system: M14
MDA-MB-231 = test system: MDA-MB-231
CCRF-CEM = test system: CCRF-CEM
SK-OV-3 = test system: SK-OV-3
Malme-3M = test system: Malme-3M
SW-620 = test system: SW-620
SNB-75 = test system: SNB-75
NCI-H23 = test system: NCI-H23
UACC-257 = test system: UACC-257
RPMI-8226 = test system: RPMI-8226
IGROV-1 = test system: IGROV-1
MDA-MB-435 = test system: MDA-MB-435
SR = test system: SR
SF-295 = test system: SF-295
OVCAR-5 = test system: OVCAR-5
U-251 = test system: U-251
NCI-H460 = test system: NCI-H460
NCI-H226 = test system: NCI-H226
RXF 393 = test system: RXF 393
HCT-15 = test system: HCT-15
DU-145 = test system: DU-145
UO-31 = test system: UO-31
SNB-19 = test system: SNB-19
MDA-N = test system: MDA-N
LOX IMVI = test system: LOX IMVI
K562 = test system: K562
A549 = test system: A549
SF-539 = test system: SF-539
MOLT-4 = test system: MOLT-4
COLO 205 = test system: COLO 205
CAKI-1 = test system: CAKI-1
EKVX = test system: EKVX
BT-549 = test system: BT-549
SK-MEL-2 = test system: SK-MEL-2
T47D = test system: T47D
UACC-62 = test system: UACC-62
HOP-92 = test system: HOP-92
HL-60 = test system: HL-60
TK-10 = test system: TK-10
KM12 = test system: KM12
NCI-H522 = test system: NCI-H522
OVCAR-8 = test system: OVCAR-8
OVCAR-3 = test system: OVCAR-3
ACHN = test system: ACHN
OVCAR-4 = test system: OVCAR-4
Hs-578T = test system: Hs-578T
HCC 2998 = test system: HCC 2998
SK-MEL-5 = test system: SK-MEL-5
HOP-62 = test system: HOP-62
SF-268 = test system: SF-268
SN12C = test system: SN12C

In the case of `COc1cc(CNC(=O)CCCCCCCCCCSC#N)ccc1O`, the GI50 (NCI/ADR-RES) is reported as 17.1 µM (inactive), the GI50 (HCT-116) is reported as 14.9 µM (inactive) and the GI50 (MCF7) is reported as 17.1 µM (inactive). For the same molecule, the GI50 (SK-MEL-28) was 7.66 µM (inactive), the GI50 (PC-3) was 6.82 µM (inactive) and the GI50 (A498) was 15.1 µM (inactive). For the same molecule, the GI50 (786-0) was 17.8 µM (inactive), the GI50 (HT-29) was 31.9 µM (inactive) and the GI50 (M14) was 7.38 µM (inactive). The GI50 (MDA-MB-231) was 25.7 µM (inactive), the GI50 (CCRF-CEM) was 8.13 µM (inactive) and the GI50 (SK-OV-3) was 10.6 µM (inactive). For the same molecule, the GI50 (Malme-3M) was 32.7 µM (inactive), the GI50 (SW-620) was 16.2 µM (inactive) and the GI50 (SNB-75) was 11 µM (inactive). For the same molecule, the GI50 (NCI-H23) was 20.6 µM (inactive), the GI50 (UACC-257) was 21 µM (inactive) and the GI50 (RPMI-8226) was 14.6 µM (inactive). The GI50 (IGROV-1) was 4.59 µM (inactive), the GI50 (MDA-MB-435) was 5.52 µM (inactive) and the GI50 (SR) was 8.47 µM (inactive). For the same molecule, the GI50 (SF-295) was 19.1 µM (inactive), the GI50 (OVCAR-5) was 30.3 µM (inactive) and the GI50 (U-251) was 16.8 µM (inactive). The GI50 (NCI-H460) was 13.3 µM (inactive), the GI50 (NCI-H226) was 18.1 µM (inactive) and the GI50 (RXF 393) was 10.2 µM (inactive). The GI50 (HCT-15) was 6.93 µM, the GI50 (DU-145) was 17.8 µM (inactive) and the GI50 (UO-31) was 3.52 µM (inactive). The GI50 (SNB-19) was 19.7 µM (inactive), the GI50 (MDA-N) was 5.87 µM (inactive) and the GI50 (LOX IMVI) was 12 µM (inactive). For the same molecule, the GI50 (K562) was 6.9 µM (inactive), the GI50 (A549) was 19.1 µM (inactive) and the GI50 (SF-539) was 18 µM (inactive). The GI50 (MOLT-4) was 3.94 µM (inactive), the GI50 (COLO 205) was 30.3 µM (inactive) and the GI50 (CAKI-1) was 18.2 µM (inactive). The GI50 (EKVX) was 21.4 µM (inactive), the GI50 (BT-549) was 22.9 µM (inactive) and the GI50 (SK-MEL-2) was 14.1 µM (inactive). The GI50 (T47D) was 8.26 µM (inactive), the GI50 (UACC-62) was 5.41 µM (inactive) and the GI50 (HOP-92) was 17.1 µM (inactive). For the same molecule, the GI50 (HL-60) was 5.69 µM (inactive), the GI50 (TK-10) was 20.5 µM (inactive) and the GI50 (KM12) was 5.83 µM (inactive). For the same molecule, the GI50 (NCI-H522) was 12.3 µM (inactive), the GI50 (OVCAR-8) was 18.5 µM (inactive) and the GI50 (OVCAR-3) was 13.1 µM (inactive). The GI50 (ACHN) was > 10 µM (inactive), the GI50 (OVCAR-4) was 25 µM (inactive) and the GI50 (Hs-578T) was 14.2 µM (inactive). For the same molecule, the GI50 (HCC 2998) was > 100 µM (inactive) and the GI50 (SK-MEL-5) was 6.22 µM (inactive).
With `O=C(O)c1c2c(cc3c1CC(Cc1ccccc1)C3=O)CCC2` (stereo not given) the GI50 (NCI/ADR-RES) was > 100 µM (inactive), the GI50 (HCT-116) was 89.9 µM (inactive) and the GI50 (MCF7) was > 100 µM (inactive). For the same molecule, the GI50 (SK-MEL-28) was > 100 µM (inactive), the GI50 (PC-3) was 64.3 µM (inactive) and the GI50 (A498) was > 100 µM (inactive). The GI50 (786-0) was > 100 µM (inactive), the GI50 (HT-29) was 57.8 µM (inactive) and the GI50 (M14) was > 100 µM (inactive). The GI50 (MDA-MB-231) was 30.5 µM (inactive), the GI50 (CCRF-CEM) was 43.7 µM (inactive) and the GI50 (SK-OV-3) was > 100 µM (inactive). The GI50 (Malme-3M) was > 100 µM (inactive), the GI50 (SW-620) was > 100 µM (inactive) and the GI50 (SNB-75) was > 100 µM (inactive). The GI50 (NCI-H23) was > 100 µM (inactive), the GI50 (UACC-257) was > 100 µM (inactive) and the GI50 (RPMI-8226) was 39.7 µM (inactive). For the same molecule, the GI50 (IGROV-1) was > 100 µM (inactive), the GI50 (MDA-MB-435) was > 100 µM (inactive) and the GI50 (HOP-62) was > 100 µM (inactive). The GI50 (SR) was 67.5 µM (inactive), the GI50 (SF-295) was > 100 µM (inactive) and the GI50 (OVCAR-5) was > 100 µM (inactive). The GI50 (U-251) was > 100 µM (inactive), the GI50 (NCI-H460) was 74.8 µM (inactive) and the GI50 (NCI-H226) was > 100 µM (inactive). For the same molecule, the GI50 (RXF 393) was > 100 µM (inactive), the GI50 (HCT-15) was 41.7 µM and the GI50 (SF-268) was > 100 µM (inactive). The GI50 (DU-145) was > 100 µM (inactive), the GI50 (UO-31) was 16.6 µM (inactive) and the GI50 (SNB-19) was > 100 µM (inactive). For the same molecule, the GI50 (MDA-N) was > 100 µM (inactive), the GI50 (SN12C) was > 100 µM (inactive) and the GI50 (LOX IMVI) was 26 µM (inactive). The GI50 (K562) was 75.2 µM (inactive), the GI50 (A549) was 19.5 µM (inactive) and the GI50 (SF-539) was 76.6 µM (inactive). For the same molecule, the GI50 (MOLT-4) was 96.8 µM (inactive), the GI50 (COLO 205) was > 100 µM (inactive) and the GI50 (CAKI-1) was > 100 µM (inactive). The GI50 (EKVX) was > 100 µM (inactive), the GI50 (BT-549) was > 100 µM (inactive) and the GI50 (SK-MEL-2) was > 100 µM (inactive). For the same molecule, the GI50 (T47D) was > 100 µM (inactive), the GI50 (UACC-62) was > 100 µM (inactive) and the GI50 (HOP-92) was 29.5 µM (inactive). For the same molecule, the GI50 (HL-60) was 22.4 µM (inactive), the GI50 (TK-10) was > 100 µM (inactive) and the GI50 (KM12) was 65.8 µM (inactive). For the same molecule, the GI50 (NCI-H522) was 74.6 µM (inactive), the GI50 (OVCAR-8) was > 100 µM (inactive) and the GI50 (OVCAR-3) was > 100 µM (inactive). The GI50 (ACHN) was 63 µM (inactive), the GI50 (OVCAR-4) was > 100 µM (inactive) and the GI50 (Hs-578T) was > 100 µM (inactive). For the same molecule, the GI50 (HCC 2998) was > 100 µM (inactive) and the GI50 (SK-MEL-5) was > 100 µM (inactive).
